Test results published in US7199118B2, “Benzothiazine derivatives, their preparation and use” (NeuroSearch A/S, priority 2001, dated 2007).

Key:
AMPA receptor = assay: Electrophysiological whole cell patch clamp experiments: potentiation of AMPA-induced current; assay type: cell-based, mouse; conditions: for concentration dependence of the potentiating effect: Compound 23a at 10, 30 and 100 μM, Compound 27a at 0.1-100 μM, 30 μM AMPA; for effect on the current induced by application of 30 μM AMPA: cultured mouse neocortical neurons, voltage clamp -60 mV, AMPA 30 μM for 1 second every 45 seconds, test concentrations per FIGS. 2-8 (Cpd 21 15 μM; 22, 24, 25 10 μM; 23a 10-100 μM; 26 3 μM; 27a 0.1-100 μM)
Experimental: Electrophysiological Patch Clamp Experiments
Experiments were performed in voltage clamp using conventional whole cell patch clamp methods (see Hamill O P, Marty A, Neher E, Sakmann B & Sigworth F J: Improved patch-clamp techniques for high-resolution current recording from cells and cell-free membrane patches; Pflügers Arch. 1981 39 85–100), essentially as described Mathiesen et al. (Mathiesen C, Varming T & Jensen L H: In vivo and in vitro evaluation of AMPA receptor antagonists in rat hippocampal neurones and cultured mouse cortical neurons; Eur. J. Pharmacol. 1998 353 159–167).
The following salt solutions were used (mM): NaCl (140), KCl (4), CaCl2 (2), MgCl2 (1), Sucrose (30; Available from Fluka Chemie, Buchs, Switzerland), Tetrodotoxin (0.0003; Available from Alomone Labs, Jerusalem, Israel), Bicuculline Methiodide (0.005; Available from RBI, MA, USA) and HEPES (10, pH 7.4).
Intracellular solution (mM): CsCl (120), CsF (20), MgCl2 (2), EGTA (10), ATP (4), HEPES (10, pH=7.2).
Cell cultures: Mouse neocortical neurons were cultured essentially as described by Drejer et al. (Drejer J, Honoré T & Schousboe A: Excitatory amino acid-induced release of ^3H-GABA from cultured mouse cerebral cortex interneurons; J. Neurosci. 1987 7 2910–2916).
Briefly, the forebrains from embryonic (E17) NMRI mice were removed under sterile conditions. Pregnant (9 days) NMRI mice were obtained from Bomholtgaard Breeding and Research Center, Ry, Denmark. The tissue was chopped in 0.4 mm cubes and the triturated with trypsin (12.5 μg/ml) and DNAse (2.5 μg/ml), 15 minutes, 37° C. The cells were suspended at a concentration of 1×10^6 cells/ml in a slightly modified DMEM containing horse serum (10% (v/v)), penicillin (333 U/ml), paraaminobenzoic acid (1 μg/ml), L-glutamine (0.5 mM), insulin (0.08 U/ml) and KCl (23.8 mM). Horse serum, N2 supplement and culture media were purchased from Life Technologies (GIBCO), Roskilde, Denmark.
The cell suspension was subsequently inoculated into poly-L-lysine coated 35 mm Petri dishes (2 ml/dish). Glass coverslips (3.5 mm) were placed in the dishes before coating. After 24 hours in culture, the medium was replaced by freshly made medium containing 1% N2 supplement instead of serum.
The cells were kept in culture for 7–14 days at 37° C. (5% CO2/95% O2) before experiments were carried out.
Electronics, programs and data acquisition: The amplifier used was the EPC-9 (HEKA-electronics, Lambrect, Germany) run by a Power Macintosh G3 computer via an ITC-16 interface. Experimental conditions were set with the Pulse-software accompanying the amplifier. Data were low pass filtered and sampled directly to hard-disk at a rate of 3 times the cut-off frequency.
Pipettes and electrodes: Pipettes were pulled from borosilicate glass (Modulohm, Copenhagen, Denmark) using a horizontal electrode puller (Zeitz-Instrumente, Augsburg, Germany). The pipette resistances were 1.7–2.4 MΩ in the salt solutions used in these experiments. The pipette electrode was a chloridized silver wire, and the reference was a silverchloride pellet electrode (In Vivo Metric, Healdsburg, USA) fixed to the experimental chamber. The electrodes were zeroed with the open pipette in the bath just prior to sealing.
Experimental procedure: Coverslips were transferred to a 15 μl experimental chamber mounted on the stage of an inverted microscope (IMT-2, Olympus) supplied with Nomarski optics. The neurons were continuously superfused with extracellular saline at a rate of 2.5 ml/min. After giga-seal formation (1–5 GΩ, success-rate≈90%) the whole cell configuration was attained by suction.
The cells were held at a holding voltage of −60 mV, and at the start of each experiment the current was continuously measured for at least 30 seconds to ensure a stable leak current.
AMPA-containing solutions were delivered to the chamber through a custom-made gravity-driven flowpipe, the tip of which was placed approximately 50 μm from the cell. […]

| melting point | Compound | concentration dependence of the potentiating effect (AMPA receptor) | effect on the current induced by application of 30 μM AMPA (AMPA receptor) |
| --- | --- | --- | --- |
| – | CN1CCN(S(=O)(=O)c2ccc3c(c2)S(=O)(=O)NC(C2CCCC2)C3)CC1 (racemic) [Compound 23a, (3RS)-3-Cyclopentyl-7-(4-methyl-piperazine-1-sulfonyl)-3,4-dihydro-2H-benzo[e][1,2]thiazine-1,1-dioxide] | concentration-dependent | potentiate the current induced by application of 30 μM AMPA |
| – | Cc1cc2c(cc1S(=O)(=O)N1CCN(C)CC1)S(=O)(=O)NC(C1CCCC1)C2 (racemic) [Compound 27a, (3RS)-3-Cyclopentyl-6-methyl-7-(4-methyl-piperazine-1-sulfonyl)-3,4-dihydro-2H-benzo[e][1,2]thiazine-1,1-dioxide] | concentration-dependent | potentiate the current induced by application of 30 μM AMPA |
| – | O=S1(=O)NC(C2CCCC2)Cc2ccc(S(=O)(=O)N3CCCCC3)cc21 (racemic) [Compound 22, (3RS)-3-Cyclopentyl-7-(piperidine-1-sulfonyl)-3,4-dihydro-2H-benzo[e][1,2]thiazine-1,1-dioxide] | – | potentiate the current induced by application of 30 μM AMPA |
| – | Cc1cc2c(cc1S(=O)(=O)N1CCCCC1)S(=O)(=O)NC(C1CCCC1)C2 (racemic) [Compound 25, (3RS)-3-Cyclopentyl-6-methyl-7-(piperidine-1-sulfonyl)-3,4-dihydro-2H-benzo[e][1,2]thiazine-1,1-dioxide] | – | potentiate the current induced by application of 30 μM AMPA |
| – | Cc1cc2c(cc1S(=O)(=O)N1CCOCC1)S(=O)(=O)NC(C1CCCC1)C2 (racemic) [Compound 26, (3RS)-3-Cyclopentyl-6-methyl-7-(morpholine-4-sulfonyl)-3,4-dihydro-2H-benzo[e][1,2]thiazine-1,1-dioxide] | – | potentiate the current induced by application of 30 μM AMPA |
| – | CN1CCN(S(=O)(=O)c2ccc3c(c2)S(=O)(=O)NC(C2CCCCC2)C3)CC1 (racemic) [Compound 24, (3RS)-3-Cyclohexyl-7-(4-methyl-piperazine-1-sulfonyl)-3,4-dihydro-2H-benzo[e][1,2]thiazine-1,1-dioxide] | – | potentiate the current induced by application of 30 μM AMPA |
| 234 to 236 °C | CN1CCN(S(=O)(=O)c2ccc3c(c2)S(=O)(=O)NC(C2CCCC2)C3)CC1.Cl (racemic) | – | – |
| 251 °C (dec.) | Cc1cc2c(cc1S(=O)(=O)N1CCN(C)CC1)S(=O)(=O)NC(C1CCCC1)C2.Cl (racemic) | – | – |
| – | O=S1(=O)NC(C2CCCCC2)Cc2ccc(S(=O)(=O)N3CCCCC3)cc21 (racemic) [Compound 21, (3RS)-3-Cyclohexyl-7-(piperidine-1-sulfonyl)-3,4-dihydro-2H-benzo[e][1,2]thiazine-1,1-dioxide] | – | potentiate the current induced by application of 30 μM AMPA |
